The values that follow are results of earlier work, collected in patent US20220304972A1, “COMBINATION THERAPY AND BIOMARKER INDICATING EFFICACY THEREOF” (Sumitomo Dainippon Pharma Co., Ltd., priority 2019, published 2022).

Like-named read-outs stand apart in the source and are kept apart here.

This data set concerns CRC patients.

For the substance “atezolizumab: anti-PD-L1 antibody, binds to PD-L1”, the ORR (MSS CRC, N=90 (2/90), Bendell et al. 2018, NCT02788279) is on record as 2.2%.

In the case of “nivolumab: anti-PD-1 antibody, binds to PD-1”, the ORR (CRC, N=14 (1/14), Brahmer 2010) is recorded as 7 and the ORR (Refractory CRC, N=19, Topialan et al. 2012, NCT00730639) is listed as 0.

On to “pembrolizumab: anti-PD-1 antibody, binds to PD-1”, for which the ORR (MSS CRC, N=18, Le et al. 2015, NCT01876511) is on record as 0 and the ORR (PD-1 positive MSS CRC, N=22, O' Neil et al. 2017, NCT02054806) was 0.
